Data as given in patent US20220323594A1, “LIPIDATED CATIONIC PEPTIDE-PEG COMPOSITIONS FOR NUCLEIC ACID DELIVERY” (NUTCRACKER THERAPEUTICS, INC., priority 2019, published 2022).

Assays:
[1] = Dynamic light scattering (DLS) of mRNA/peptoid formulations: particle size and polydispersity; type: physicochemical; settings: Fluc mRNA/peptoid formulation; for Size PDI: size polydispersity index by DLS, 5:1 mass ratio; for Size (nm): volume average particle size/diameter by DLS, 5:1 mass ratio peptoid:cargo
Experimental: (§1) To prepare nanoparticle formulations, the amino lipidated peptoid is mixed by pipetting with nucleic acid at a mass ratio between approximately 1:1 (peptoid:cargo) and 20:1. Prior to formulation, amino lipidated peptoid and nucleic acid cargo were diluted in ethanol and acidic buffer (PBS adjusted to pH 5.5 with 0.1 M HCl) respectively to a volume ratio of 1:3 and to target a final cargo concentration of approximately 0.05 mg/mL to 0.2 mg/mL. The exemplary amino lipidated cationic peptoids described in Example 2 were combined with firefly luciferase (Fluc) mRNA to form nanoparticle compositions to be evaluated for therapeutic and/or prophylactic purposes in vitro or in vivo. The formulations were prepared according to the protocol of Example 3 and mixed by simple pipetting. The mRNA/peptoid formulation at a 5:1 mass ratio of peptoid:cargo were evaluated by dynamic light scattering (DLS) in order to determine the volume average particle size/diameter (nm) of the mRNA/peptoid complex and the size polydispersity index (PDI) within the formulation. The percentage of mRNA encapsulation for each formulation of the exemplary compounds were determined by fluorescence of the Qubit RNA HS (Invitrogen) dye before and after lysis of particles by Triton X-100.

[2] = test system: HeLa cells; test: In vitro Fluc expression with variable peptoid:mRNA mass ratio, 2% DMG-PEG2000; type: cell-based; settings: 24 h; for Observed Luciferase Expression (RLU) for Given Formulation Mass Ratio 2:1: 2% (w/w) DMG-PEG2000, peptoid:mRNA 2:1; for Observed Luciferase Expression (RLU) for Given Formulation Mass Ratio 3.5:1: 2% (w/w) DMG-PEG2000, peptoid:mRNA 3.5:1; for Observed Luciferase Expression (RLU) for Given Formulation Mass Ratio 5:1: 2% (w/w) DMG-PEG2000, peptoid:mRNA 5:1; for Observed Luciferase Expression (RLU) for Given Formulation Mass Ratio 7.5:1: 2% (w/w) DMG-PEG2000, peptoid:mRNA 7.5:1
Experimental: The charge ratio dependence of amino lipidated peptoid delivery vehicles was evaluated by formulating particles between Fluc mRNA and delivery vehicles at varying mass ratios. Formulations were varied between 2:1 and 7.5:1 peptoid:mRNA (w/w) ratios (2:1, 3.5:1, 5:1 and 7.5:1). In addition, the role of DMG-PEG2000 was also explored with the mass ratios, either by excluding DMG-PEG2000 or incorporating DMG-PEG2000 at 2% (w/w) relative to amino lipidated peptoid. Fluc expression from these formulations was measured in HeLa cells following treatment for 24 hours. […] FIGS. 6B and 6C show plots of the average bioluminescence (RLU) for HeLa cells treated with the formulations of exemplary amino lipidated cationic peptoid compounds 1-36, all formulated with 2% w/w DMG-PEG2000.

[3] = test system: HeLa cells; test: In vitro expression of firefly luciferase (Fluc) after treatment with Fluc mRNA/amino lipidated peptoid formulations, no PEG or 2% DMG-PEG2000; type: cell-based
Experimental: The efficacy of mRNA/amino lipidated peptoid formulations was evaluated in vitro based on their ability to deliver the firefly luciferase (Fluc) reporter gene to cultured cells. Amino lipidated peptoids were combined with Fluc mRNA at a 5:1 w/w ratio, and the resulting particles were added to cultured HeLa cells at a dose of 100 ng/well (in 100 μL total volume). The resulting luciferase expression (RLU) was measured by a luminescence plate reader after 6 hours and 24 hours of treatment. […] In addition to evaluating nanoparticle complexes formed between mRNA cargos and amino lipidated peptoids alone, multicomponent formulations containing a small amount of PEG-lipid DMG-PEG2000 were also tested for in vitro Fluc mRNA delivery. In these formulations, DMG-PEG2000 was pre-mixed with candidate peptoid at an overall 2% incorporation (w/w), while maintaining the same 5:1 mass ratio of peptoid:mRNA used previously.

[4] = MTT viability assay after treatment with Fluc mRNA/amino lipidated peptoid formulations; type: cell-based; settings: human, HeLa cells
In short: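 Formulations (peptoid:mRNA 5:1 mass ratio, 2% w/w DMG-PEG2000) were applied at 100 ng Fluc mRNA per well for 8 h, followed by 48 h of growth. Cells then received 1.5 mg/mL MTT for 2 h, and formazan signal was normalized to untreated cells.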

[5] = mRNA encapsulation by fluorescence of Qubit RNA HS dye before and after lysis with Triton X-100; type: physicochemical; settings: percentage of mRNA encapsulation; Fluc mRNA/peptoid formulation, 5:1 mass ratio
Experimental: as §1, with “The” for “To prepare nanoparticle formulations, the amino lipidated peptoid is mixed by pipetting with nucleic acid at a mass ratio between approximately 1:1 (peptoid:cargo) and 20:1. Prior to formulation, amino lipidated peptoid and nucleic acid cargo were diluted in ethanol and acidic buffer (PBS adjusted to pH 5.5 with 0.1 M HCl) respectively to a volume ratio of 1:3 and to target a final cargo concentration of approximately 0.05 mg/mL to 0.2 mg/mL. The”

[6] = no PEG, peptoid:Fluc mRNA 5:1 w/w, 100 ng/well, 6 h of treatment
[7] = no PEG, peptoid:Fluc mRNA 5:1 w/w, 100 ng/well, 24 h of treatment
[8] = with 2% (w/w) DMG-PEG2000, peptoid:mRNA 5:1, 6 h after treatment
[9] = with 2% (w/w) DMG-PEG2000, peptoid:mRNA 5:1, 24 h after treatment

Row | SMILES | Size PDI [1] | Size (nm) [1] [nm] | Observed Luciferase Expression (RLU) for Given Formulation Mass Ratio 2:1 [2] [RLU] | Observed Luciferase Expression (RLU) for Given Formulation Mass Ratio 3.5:1 [2] [RLU] | Observed Luciferase Expression (RLU) for Given Formulation Mass Ratio 5:1 [2] [RLU] | Observed Luciferase Expression (RLU) for Given Formulation Mass Ratio 7.5:1 [2] [RLU] | Luciferase Expression (RLU) 6 h [3, 6] [RLU] | Luciferase Expression (RLU) 24 h [3, 7] [RLU] | Luciferase Expression (RLU) 6 h [3, 8] [RLU] | Luciferase Expression (RLU) 24 h [3, 9] [RLU] | viability at 8 h, 500 ng/well ([4]; Relative Viability (%) 2% PEG) [%] | viability at 8 h, 500 ng/well ([4]; Relative Viability (%) No PEG) [%] | % Encapsulation [5] [%]
1 | CCCCCCCCCCN(CC(=O)N(CCN)CC(=O)N(CCc1ccccc1)CC(=O)N(CCc1ccccc1)CC(=O)N(CCCCCCCCCC)CC(=O)N(CCN)CC(=O)N(CCc1ccccc1)CC(=O)N(CCc1ccccc1)CC(N)=O)C(=O)CN(CCc1ccccc1)C(=O)CN(CCc1ccccc1)C(=O)CNCCN [Compound 17] | 0.37 | 472.8 | 2.72E+03 | 1.56E+03 | 1.60E+03 | 3.75E+01 | 6.84E+02 | 5.63E+02 | 8.67E+01 | 1.80E+02 | 91.7 | 88 | 90.3
2 | CCCCCCCCCCNCC(=O)N(CCN)CC(=O)N(CCc1ccccc1)CC(=O)N(CCc1ccccc1)CC(=O)N(CCN)CC(=O)N(CCc1ccccc1)CC(=O)N(CCc1ccccc1)CC(=O)N(CCN)CC(=O)N(CCc1ccccc1)CC(=O)N(CCc1ccccc1)CC(=O)N(CCCCCCCCCC)CC(N)=O [Compound 18] | 0.762 | 593 | 1.53E+03 | 3.00E+03 | 9.99E+02 | 2.41E+01 | 5.74E+02 | 8.49E+02 | 8.50E+01 | 1.22E+02 | 89.3 | 86.1 | 88.5
3 | CCCCCCCCCCN(CC(N)=O)C(=O)CN(CCCCCCCCCC)C(=O)CN(CCCCCCCCCC)C(=O)CN(CCCCCCCCCC)C(=O)CN(CCCCCCCCCC)C(=O)CN(CCc1ccccc1)C(=O)CN(CCc1ccccc1)C(=O)CN(CCN)C(=O)CN(CCc1ccccc1)C(=O)CN(CCc1ccccc1)C(=O)CNCCN [Compound 20] | 0.37 | 326.6 | 1.31E+03 | 2.47E+04 | 1.31E+04 | 2.27E+04 | 9.91E+03 | 1.55E+04 | 1.75E+04 | 1.36E+04 | 93 | 87.1 | 72.2
